# Species: Rattus norvegicus
# Assay: Open TG-GATES - Regimen: Daily Repeat
# Assay type: toxicity, organism-based, Sprague-Dawley
# Set-up: regimen Daily Repeat, gender Male, age 6 weeks
# Conditions: in vivo, po, 300 mg/kg, route gavage, dose level Middle; for APTT / Bas / Eos / Fbg / Hb / Ht / Lym / MCH / MCHC / MCV / Mono / Neu / PT / Plat / RBC / Ret / WBC: tissue Blood
# [1] = 72 h, tissue Kidney, time 3 day
# [2] = 72 h, tissue Plasma, time 3 day
compound,measurement,setting,value
CN(C)[C@@H]1C(O)=C(C(N)=O)C(=O)[C@@]2(O)C(O)=C3C(=O)c4c(O)cccc4[C@@](C)(O)[C@H]3C[C@@H]12 [TETRACYCLINE],TERMINAL_BW,"72 h, time 3 day",189.9 g
same,APTT,"72 h, time 3 day",16.3 s
same,Bas,"72 h, time 3 day",0%
same,Eos,"72 h, time 3 day",0.6%
same,Fbg,"72 h, time 3 day",239.2 mg/dL
same,Hb,"72 h, time 3 day",13.6 g/dL
same,Ht,"72 h, time 3 day",40.7%
same,Lym,"72 h, time 3 day",87.4%
same,MCH,"72 h, time 3 day",21.9 pg
same,MCHC,"72 h, time 3 day",33.4%
same,MCV,"72 h, time 3 day",65.7 fL
same,Mono,"72 h, time 3 day",5.6%
same,Neu,"72 h, time 3 day",6%
same,PT,"72 h, time 3 day",12.3 s
same,Plat,"72 h, time 3 day",99.5 x10_4/uL
same,RBC,"72 h, time 3 day",620.2 x10_4/ul
same,Ret,"72 h, time 3 day",5.8%
same,WBC,"72 h, time 3 day",89.4 x10_2/uL
same,KIDNEY_L,[1],0.9 g
same,KIDNEY_R,[1],0.9 g
same,KIDNEY_TOTAL,[1],1.8 g
same,LIVER,"72 h, tissue Liver, time 3 day",8.8 g
same,A/G,[2],1.9
same,ALP,[2],1035.4 IU/L
same,ALT,[2],35.6 IU/L
same,AST,[2],66.8 IU/L
same,BUN,[2],16.2 mg/dL
same,CRE,[2],0.6 mg/dL
same,Ca,[2],10.9 mg/dL
same,Cl,[2],107.2 meq/L
same,DBIL,[2],0.01 mg/dL
same,GLC,[2],180.6 mg/dL
same,IP,[2],9.8 mg/dL
same,K,[2],4.8 meq/L
same,LDH,[2],122.6 IU/L
same,Na,[2],141 meq/L
same,PL,[2],147.2 mg/dL
same,RALB,[2],3.8 g/dL
same,TBIL,[2],0.3 mg/dL
same,TC,[2],93.6 mg/dL
same,TG,[2],42.6 mg/dL
same,TP,[2],5.8 g/dL
same,gamma-GTP,[2],1.6 IU/L
same,TERMINAL_BW,"[…], time 7 day",227.9 g
same,TERMINAL_BW,"[…], time 14 day",275.6 g
same,TERMINAL_BW,"[…], time 28 day",341 g
same,APTT,"[…], time 7 day",17.9 s
same,Bas,"[…], time 7 day",0%
same,Eos,"[…], time 7 day",1%
same,Fbg,"[…], time 7 day",238.5 mg/dL
same,Hb,"[…], time 7 day",13.9 g/dL
same,Ht,"[…], time 7 day",41.5%
same,Lym,"[…], time 7 day",85%
same,MCH,"[…], time 7 day",21 pg
same,MCHC,"[…], time 7 day",33.4%
same,MCV,"[…], time 7 day",62.9 fL
same,Mono,"[…], time 7 day",7%
same,Neu,"[…], time 7 day",7.2%
same,PT,"[…], time 7 day",12.1 s
same,Plat,"[…], time 7 day",102 x10_4/uL
same,RBC,"[…], time 7 day",660.2 x10_4/ul
same,Ret,"[…], time 7 day",7.2%
same,WBC,"[…], time 7 day",135.8 x10_2/uL
same,APTT,"[…], time 14 day",16.7 s
same,Bas,"[…], time 14 day",0%
same,Eos,"[…], time 14 day",0.6%
same,Fbg,"[…], time 14 day",224 mg/dL
same,Hb,"[…], time 14 day",14 g/dL
same,Ht,"[…], time 14 day",42.2%
same,Lym,"[…], time 14 day",88.8%
same,MCH,"[…], time 14 day",20.3 pg
same,MCHC,"[…], time 14 day",33.3%
same,MCV,"[…], time 14 day",60.8 fL
same,Mono,"[…], time 14 day",4.8%
same,Neu,"[…], time 14 day",5.8%
same,PT,"[…], time 14 day",11.9 s
same,Plat,"[…], time 14 day",101.9 x10_4/uL
same,RBC,"[…], time 14 day",694 x10_4/ul
same,Ret,"[…], time 14 day",5.3%
same,WBC,"[…], time 14 day",135.4 x10_2/uL
same,APTT,"[…], time 28 day",16.5 s
same,Bas,"[…], time 28 day",0%
same,Eos,"[…], time 28 day",1%
same,Fbg,"[…], time 28 day",222.6 mg/dL
same,Hb,"[…], time 28 day",14.6 g/dL
same,Ht,"[…], time 28 day",43.4%

# From ChEMBL document CHEMBL3885861, “Open TG-GATES”
